Patent US20250302792A1, “ACTIVE SUBSTANCES FOR MEDICAL USE” (inflamed pharma GmbH, priority 2022, published 2025)
Structures can show the parent of a compound that is named as a salt. Where two headings read alike, the source gives them in different places.

What was measured:
[1] = Solubility in octanol, content by UV/VIS spectroscopy and pH; format: physicochemical; settings: for pH: solubility test in octanol
Procedure: Solubility tests in octanol were conducted, and the content in the organic phase was examined by UV/VIS spectroscopy, as were the pH values.

[2] = system: A. fumigatus; format: cell-based, Aspergillus fumigatus
[3] = system: A. fumigatus; assay: Hyphae formation of A. fumigatus in a human cell-free system, DMEM with 10% FCS (FIG. 4); format: cell-based, Aspergillus fumigatus; settings: 10 h
Procedure: (A) Procedure for the treatment method: conidia of a GFP-expressing A. fumigatus strain [5*10^6 conidia/well] was sown on cover slips in 24-well plates and incubated with solvent (H2O) or with the specified concentrations of voriconazole, ProcCluster® (B-C) or procaine HCl (D-E) in DMEM with 10% FCS at 37° C., 5% CO2, for 10 h. Subsequently, the fungi were fixed (3.7% formaldehyde in PBS, 1 h, room temperature) and applied to microscope slides with fluorescent dye solution (Agilent, Santa Clara, CA, USA). (B, D) The growth of A. fumigatus was visualized via internal GFP expression. The scale of the immunofluorescence images corresponds to 100 μm. Detection of immunofluorescence and imaging and image processing were effected with an Axio Observer.Z1 microscope (Zeiss, Jena, Germany) and the Fiji V 1.52b software (github.com/fiji/fiji). (C, E) Fungus size was determined by means of the particle counter software (github.com/chko90/particle counter). Five immunofluorescence images were taken for each sample. The fungus sizes ascertained were normalized and the solvent control was set at 100%. Statistical significance was ascertained by a one-way ANOVA test with Dunnett multiple comparison test using GraphPad Prism 9.2 (Graphpad Software, Boston, USA) (p<0.05 was considered to be the level of statistical significance).

[4] = system: influenza virus A/Puerto Rico/8/34; format: cell-based
[5] = system: A. fumigatus; format: cell-based, Aspergillus fumigatus; remark: listed apart in the source
[6] = system: influenza virus A/Puerto Rico/8/34 (IAV); format: cell-based
[7] = system: A. fumigatus; assay: Hyphae formation of GFP-expressing A. fumigatus conidia in DMEM/BA medium (FIG. 1); format: cell-based, Aspergillus fumigatus; settings: procaine HCl 0.31 or 1.25-10 mM, 10 h, 37° C.
Procedure: (A) Procedure for the treatment method: conidia of a green-fluorescence protein (GFP)-expressing A. fumigatus strain [5*10^6 conidia/well] were sown on cover slips in 24-well plates in 300 μl of DMEM/BA medium (0.2% BSA, 1 mM MgCl2 and 0.9 mM CaCl2) and, in each case supplemented with solvent (H2O), procaine HCl [0.31 (B) or 1.25 (C)—10 mM] or voriconazole [0.2 μg ml^−1], incubated at 37° C., 5% CO2, for 10 h. Subsequently, the fungi were fixed (3.7% formaldehyde in PBS, 30 min, room temperature) and applied to microscope slides with the aid of fluorescent dye solution (Agilent, Santa Clara, CA, USA). The hyphae size was analyzed by (B) Axio Observer.Z1 microscope (Zeiss, Jena, Germany) and the Fiji V 1.52b software (github.com/fiji/fiji). (C) Fungus size was calculated with the particle counter software (github.com/chko90/particle counter). The data are a representation of four experiments (B) or the mean+SD of four experiments with two technical samples in each case (C). Statistical significance was calculated with GraphPad Prism 9.2 (Graphpad Software, Boston, USA) using the one-way ANOVA Dunnett multiple comparison test. P values are indicated by asterisks *p<0.05.

| Structure (SMILES) | membrane permeability concluded from solubility in the organic phase ([1]; octanol) | Content (solubility in octanol, content in the organic phase) ([1]; octanol, UV/VIS spectroscopy) | pH [1] | pathogenic load of A. fumigatus [2] | hyphae formation [3] | pathogenic load of influenza viruses [4] | Content (solubility in octanol, content in the organic phase) ([1]; octanol, UV/VIS spectroscopy, hydrochloride) | Content (solubility in octanol, content in the organic phase) ([1]; octanol, UV/VIS spectroscopy, listed as Procaine HCl, hydrochloride) | pH ([1]; hydrochloride) | hyphae formation [5] | virus load [6] | hyphae formation by A. fumigatus [7] | Content (solubility in octanol, content in the organic phase) [1] |
| --- | --- | --- | --- | --- | --- | --- | --- | --- | --- | --- | --- | --- | --- |
| CCN(CC)CCOC(=O)c1ccc(N)cc1.O=C(O)O [Carbonic acid adduct of procaine] | membrane-permeable | 74% | 7.5 | – | – | – | – | – | – | – | – | – | – |
| CCN(CC)CCOC(=O)c1ccc(N)cc1 [Procaine hydrochloride, procaine hydrochloride] | – | – | – | reduced | reduced hyphae formation | reduced | 8% | 8% | 4.5 | reduced | reduced virus load | reduces hyphae formation | – |
| CCN(CC)CCOC(=O)c1ccc(N)cc1 [Procaine, 2-(N,N-diethylamino)ethyl 4-aminobenzoate] | – | – | 8.5 | – | – | – | – | – | – | – | – | – | completely dissolved (100%) |
